We go through one molecule from article PMC12670164, “In vitro and clinical data demonstrate negligible risk of drug–drug interactions with opelconazole, a novel inhaled antifungal agent” (Journal of Antimicrobial Chemotherapy, 2025).

Values joined by “and” are separate entries in the source; they are usually repeats but may differ in a detail not shown here. Equal entries are not always repeated. Where two headings read alike, the source gives them in different places.

One data set concerns the target CYP2C9 (Homo sapiens, UniProt P11712). Put plainly: Reaction phenotyping with recombinant CYP enzymes (opelconazole as substrate). The class given is in vitro ADME. The settings on record: incubated with 0.01 and 0.1 µM opelconazole. The method, then:
(§1) The testing of opelconazole as a potential substrate of CYP1A2, 2B6, 2C8, 2C9, 2C19, 2D6 and 3A4 was determined in vitro using recombinant CYP enzymes. Two concentrations of opelconazole (0.01 and 0.1 µM) were tested with each of the seven CYPs.
(§2) The relative contributions of CYP3A4 and CYP2C9 were ∼75% and 25%, respectively, when incubated with 0.01 and 0.1 µM opelconazole.

The subject of data set [1] is Aspergillus fumigatus clinical strains. The arrangement: method as in PMID 33340279. The settings on record: cited from earlier work.
Details of data set [2]: method as in PMID 33340279. The settings on record: cited from earlier work.
Another data set has as its system CYP1A2. Nature of the data set: CYP induction, mRNA endpoint, cryopreserved human hepatocytes. The settings on record: for CYP1A2 mRNA increase: concentration-dependent, 72 h. As for the experimental part:
The potential for opelconazole to act as an inducer of CYP isoforms CYP1A2, CYP2B6 and CYP3A4 was assessed in vitro using an mRNA endpoint across three donors in cryopreserved human hepatocytes. A drug is interpreted as an inducer if: (1) it increases mRNA expression of a CYP enzyme in a concentration-dependent manner and (2) the fold change of CYP mRNA expression relative to vehicle control is ≥2-fold at the drug’s expected hepatic concentrations.[23]
(§3) A cytotoxicity assessment using MTT was performed in one of the three donors used for the induction studies prior to dosing.

Data set [3] concerns cryopreserved human hepatocytes. Put plainly: MTT cytotoxicity assessment in hepatocytes. The class given is cell-based. The settings on record: up to 3 μM, one donor. The method, then: The hepatocyte cells were dosed with opelconazole (0.012, 0.03, 0.12, 0.3, 1.2 and 3 μM) and positive control compounds (omeprazole for CYP1A2 and rifampicin for CYP3A4).
Data set [4] has as its target CYP3A4 (Homo sapiens, UniProt P08684). The class given is in vitro ADME. The settings on record: incubated with 0.01 and 0.1 µM opelconazole. The method, then:
as §1, §2

Data set [5] can be described thus: Phase 1 study: safety and tolerability. It counts as in vivo, human. The method, then: Safety and tolerability were assessed by monitoring the incidence, nature and severity of adverse events (AEs) as well as by vital-sign measurements, 12-lead ECGs, clinical laboratory testing (haematology, chemistry and urinalysis), physical examination and lung function testing [forced expiratory volume in one second (FEV1) and forced vital capacity (FVC)].

For another data set, the target named is T1, OAT1 (Homo sapiens, UniProt Q4U2R8).
T1 construct: expressed in transfected cells
T1 sequence (Q4U2R8 1-563): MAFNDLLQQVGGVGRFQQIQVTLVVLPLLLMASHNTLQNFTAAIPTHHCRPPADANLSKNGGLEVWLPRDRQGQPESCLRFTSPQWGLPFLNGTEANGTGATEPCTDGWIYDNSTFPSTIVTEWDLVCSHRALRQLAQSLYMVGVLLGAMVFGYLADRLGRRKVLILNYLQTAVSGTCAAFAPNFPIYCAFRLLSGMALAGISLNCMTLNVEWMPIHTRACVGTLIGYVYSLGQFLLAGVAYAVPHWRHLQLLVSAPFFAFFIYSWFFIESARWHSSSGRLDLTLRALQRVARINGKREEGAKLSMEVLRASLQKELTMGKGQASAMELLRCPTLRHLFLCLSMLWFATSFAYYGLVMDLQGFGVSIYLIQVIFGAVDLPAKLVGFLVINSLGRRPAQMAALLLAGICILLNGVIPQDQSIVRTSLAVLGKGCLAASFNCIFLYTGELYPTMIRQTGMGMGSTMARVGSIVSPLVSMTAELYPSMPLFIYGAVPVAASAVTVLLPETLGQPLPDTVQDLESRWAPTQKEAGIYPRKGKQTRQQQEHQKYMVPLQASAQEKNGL
Put plainly: Transporter inhibition. It counts as in vitro ADME. The settings on record: 0.5 and 5 μM tested. As for the experimental part:
(§4) Human transporter protein interactions with opelconazole as a potential substrate and/or inhibitor were assessed for the following key carrier transporters: organic anion transporters, OAT1 and OAT3; organic cation transporters, OCT1 and OCT2; OATP1B1 and OATP1B3; multidrug and toxin extrusion, MATE-1 and MATE2-K; key ATP-binding cassette (ABC) transporters including P-gp, breast cancer resistance protein (BCRP) and bile salt export pump (BSEP). Two concentrations of opelconazole, 0.5 and 5 μM, were tested using MDCKII cells, human embryonic kidney 293 cells and BSEP-transfected sf9 membrane vesicles and then analysed by LC-tandem MS to determine transporter inhibition and whether opelconazole was a transporter substrate. The viability of experimental test systems was confirmed with controls and known probe substrates and probe inhibitors.

A further data set deals with T2, MATE2-K (Homo sapiens, UniProt Q86VL8).
T2 construct: expressed in transfected cells
T2 sequence (Q86VL8 1-566 isoform Q86VL8-3): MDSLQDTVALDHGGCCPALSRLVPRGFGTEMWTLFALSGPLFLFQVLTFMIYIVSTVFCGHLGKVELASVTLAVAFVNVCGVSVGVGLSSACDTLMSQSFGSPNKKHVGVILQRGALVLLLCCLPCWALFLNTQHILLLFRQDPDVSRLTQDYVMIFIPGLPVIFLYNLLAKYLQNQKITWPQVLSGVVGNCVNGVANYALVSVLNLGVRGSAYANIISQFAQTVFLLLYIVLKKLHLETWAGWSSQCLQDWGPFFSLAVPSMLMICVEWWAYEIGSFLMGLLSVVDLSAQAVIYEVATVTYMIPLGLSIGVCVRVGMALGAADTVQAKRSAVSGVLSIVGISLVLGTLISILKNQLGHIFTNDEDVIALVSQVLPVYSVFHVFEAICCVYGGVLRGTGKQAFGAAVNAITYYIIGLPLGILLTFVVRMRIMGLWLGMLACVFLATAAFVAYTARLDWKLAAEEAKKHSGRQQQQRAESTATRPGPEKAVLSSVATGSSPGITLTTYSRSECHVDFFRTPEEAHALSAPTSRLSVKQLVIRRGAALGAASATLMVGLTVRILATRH
Nature of the data set: Transporter inhibition. It counts as in vitro ADME. As for the experimental part: as §4

The target in another data set is T3, OCT2 (Homo sapiens, UniProt O15244).
T3 construct: expressed in transfected cells
T3 sequence (O15244 1-555): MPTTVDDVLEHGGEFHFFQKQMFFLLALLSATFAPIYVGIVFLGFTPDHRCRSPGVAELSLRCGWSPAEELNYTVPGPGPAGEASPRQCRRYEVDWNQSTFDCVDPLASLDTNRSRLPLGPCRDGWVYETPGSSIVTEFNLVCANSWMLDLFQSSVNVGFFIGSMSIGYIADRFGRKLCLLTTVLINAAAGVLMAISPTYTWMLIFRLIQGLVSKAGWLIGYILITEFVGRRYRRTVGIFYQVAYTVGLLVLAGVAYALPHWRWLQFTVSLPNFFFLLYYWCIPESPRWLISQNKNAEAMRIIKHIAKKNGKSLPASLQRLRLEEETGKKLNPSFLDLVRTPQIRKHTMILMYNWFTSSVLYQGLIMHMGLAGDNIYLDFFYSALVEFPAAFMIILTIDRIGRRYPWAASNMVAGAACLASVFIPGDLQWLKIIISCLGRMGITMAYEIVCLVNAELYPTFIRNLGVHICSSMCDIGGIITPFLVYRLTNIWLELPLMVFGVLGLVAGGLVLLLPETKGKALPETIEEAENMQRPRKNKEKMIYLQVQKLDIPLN
Nature of the data set: Transporter inhibition. The class given is in vitro ADME. As for the experimental part: as §4

Data set [6] deals with CYP3A4. As for the experimental part: The potential for opelconazole to act as an inducer of CYP isoforms CYP1A2, CYP2B6 and CYP3A4 was assessed in vitro using an mRNA endpoint across three donors in cryopreserved human hepatocytes.
as §3

Details of data set [7]: method as in unpublished data; L.M.R. Cass and L. Berman. Particulars: ref unpublished data; L.M.R. Cass and L. Berman; cited from earlier work.

Chain of CYP2C9 (P11712 whole entry): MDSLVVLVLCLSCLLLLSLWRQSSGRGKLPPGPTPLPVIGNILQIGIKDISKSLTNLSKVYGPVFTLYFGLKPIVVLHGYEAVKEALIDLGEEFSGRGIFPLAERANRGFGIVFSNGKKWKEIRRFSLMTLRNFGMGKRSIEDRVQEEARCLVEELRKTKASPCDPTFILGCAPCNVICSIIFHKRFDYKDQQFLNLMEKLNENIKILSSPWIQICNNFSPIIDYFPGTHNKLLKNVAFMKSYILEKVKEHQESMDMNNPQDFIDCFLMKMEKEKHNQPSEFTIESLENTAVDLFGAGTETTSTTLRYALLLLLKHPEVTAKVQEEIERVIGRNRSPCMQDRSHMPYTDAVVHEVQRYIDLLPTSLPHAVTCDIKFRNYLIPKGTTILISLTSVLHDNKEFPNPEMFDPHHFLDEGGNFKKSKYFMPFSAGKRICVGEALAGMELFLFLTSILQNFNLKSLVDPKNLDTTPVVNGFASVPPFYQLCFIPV
Chain of CYP3A4 (Homo sapiens, UniProt P08684) (P08684 whole entry): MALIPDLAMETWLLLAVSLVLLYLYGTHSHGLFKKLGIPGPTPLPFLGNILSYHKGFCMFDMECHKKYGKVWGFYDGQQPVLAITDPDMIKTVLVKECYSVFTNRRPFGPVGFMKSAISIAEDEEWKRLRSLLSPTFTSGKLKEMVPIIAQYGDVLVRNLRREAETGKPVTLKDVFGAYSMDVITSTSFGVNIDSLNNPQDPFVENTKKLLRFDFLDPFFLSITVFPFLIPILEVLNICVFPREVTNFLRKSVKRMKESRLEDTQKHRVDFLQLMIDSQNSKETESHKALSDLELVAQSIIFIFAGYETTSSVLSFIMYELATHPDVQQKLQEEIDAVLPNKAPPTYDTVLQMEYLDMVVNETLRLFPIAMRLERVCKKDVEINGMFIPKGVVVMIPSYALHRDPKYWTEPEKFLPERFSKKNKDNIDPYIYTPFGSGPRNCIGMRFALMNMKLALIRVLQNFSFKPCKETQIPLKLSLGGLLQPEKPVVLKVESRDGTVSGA

Take `Cc1cc(N2CCN(c3ccc(C(=O)Nc4ccc(F)cc4)cc3)CC2)ccc1OC[C@@H]1CO[C@@](Cn2cncn2)(c2ccc(F)cc2F)C1` [opelconazole]: on CYP2C9, the “relative contribution of CYP2C9 to metabolism of opelconazole” value is given as ~25%. For the same molecule, in data set [1], the “minimal inhibitory concentration required to inhibit 90% of clinical strains” value is 1 µg/mL. In data set [2], the “plasma protein binding (PPB)” value is given as 97%. Moreover, in the data set on CYP1A2 (CYP1A2, in vitro), the “opelconazole concentration giving threshold induction outcome” value is 0.3 μM and 204 ng/mL. The “CYP1A2 mRNA increase” value in the data set with CYP1A2 (donor 1, opelconazole ≥0.3 μM) is 2.72 fold; in the data set on CYP1A2 (donor 2, opelconazole ≥0.3 μM), 1.97 fold. Moreover, the “cytotoxicity (MTT)” value in data set [3] was “no cytotoxicity was observed”. For the same molecule, the “relative contribution of CYP3A4 to metabolism of opelconazole” value at CYP3A4 [4] is ~75%. In addition, the “headache considered related to inhaled opelconazole, participants” value in data set [5] (5/24 participants, all mild, 14.8 mg twice daily for 14 days with midazolam/caffeine) is given as 20.8%. For the same molecule, the post-dose acute bronchospasm result in data set [5] (any participant who received opelconazole) is “no evidence”. Moreover, the “changes in lung function (FEV1 and FVC)” value in data set [5] (any timepoint during the study) was “No clinically significant changes”. Further, the “deaths or serious AEs” value in data set [5] (healthy volunteers N = 24, 14.8 mg twice daily for 14 days) is recorded as “No deaths or serious AEs were reported”. For the same molecule, the tolerability result in data set [5] (inhaled 14.8 mg twice daily) was “generally well tolerated”. Besides, on OAT1, the “inhibitory interaction with OAT1” value is reported as “negligible inhibitory interactions”. Further, the entries for the “inhibition of MATE2-K relative to solvent control” value against MATE2-K (0.5 μM opelconazole) and against MATE2-K (5 μM opelconazole) were 19% and 52%, respectively. Besides, the “inhibitory interaction with OCT2” value against OCT2 (0.5 μM opelconazole) is on record as “negligible inhibitory interactions”. Besides, at OCT2 (5 μM opelconazole), the “inhibition of OCT2 relative to solvent control” value is 39%. Also, the “CYP3A4 mRNA expression increase” value with CYP3A4 [6] (donor 1, only at 0.3 μM, 72 h) is on record as 2.17 fold; in the data set with CYP3A4 [6] (donors 2 and 3, any concentration (0.012–3 μM)), < 2 fold. The “oral bioavailability of any swallowed fraction” value in data set [7] is “negligible”.
